From US20230128372A1 (EXCALIBUR MEDICINES LIMITED, priority 2020, published 2023)

Assays:
rat hepatocytes = conditions: cited from earlier work
human glucokinase = human glucokinase (Homo sapiens, UniProt P35557); conditions: read-out: EC50 activation of glucokinase; recombinant human enzyme, in vitro; cited from earlier work
human hepatocytes = conditions: cited from earlier work
rat glucokinase = molecular target: T1, rat glucokinase (Rattus norvegicus, UniProt P17712); conditions: read-out: EC50 activation of glucokinase; recombinant rat enzyme, in vitro; cited from earlier work
T1 sequence (P17712 1-465): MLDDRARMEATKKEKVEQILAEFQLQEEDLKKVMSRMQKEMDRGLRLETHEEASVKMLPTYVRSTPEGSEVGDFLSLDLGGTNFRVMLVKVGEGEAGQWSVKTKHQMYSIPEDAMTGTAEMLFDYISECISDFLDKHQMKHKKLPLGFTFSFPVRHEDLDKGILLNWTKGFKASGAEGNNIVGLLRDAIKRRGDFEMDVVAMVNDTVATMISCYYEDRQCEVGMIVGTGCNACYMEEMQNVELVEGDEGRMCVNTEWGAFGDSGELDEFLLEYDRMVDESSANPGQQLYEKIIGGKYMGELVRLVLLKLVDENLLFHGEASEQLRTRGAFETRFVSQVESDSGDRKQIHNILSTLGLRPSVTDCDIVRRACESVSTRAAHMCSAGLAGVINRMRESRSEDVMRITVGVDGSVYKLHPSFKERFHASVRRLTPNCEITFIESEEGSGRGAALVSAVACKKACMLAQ

[1] = test system: healthy, non-diabetic patients; conditions: doses of 40 mg or 80 mg; hypoglycaemia defined as 2.7 mmol/l; cited from earlier work
[2] = test system: normo-glycaemic insulin resistant rats; conditions: dosed acutely and once daily for up to 28 days, rapid onset of action; cited from earlier work
[3] = test system: Japanese type 2 diabetic subjects; conditions: cited from earlier work
[4] = test system: hospitalised diabetic patients with known or suspected COVID-19; conditions: 60 patients, test and control group combined (blinded); 12 deaths expected from Coronad study
healthy animals = conditions: cited from earlier work
diabetic mice = conditions: dosed acutely and once daily for up to 28 days, rapid onset of action; cited from earlier work

human glucokinase, sequence (P35557 whole entry): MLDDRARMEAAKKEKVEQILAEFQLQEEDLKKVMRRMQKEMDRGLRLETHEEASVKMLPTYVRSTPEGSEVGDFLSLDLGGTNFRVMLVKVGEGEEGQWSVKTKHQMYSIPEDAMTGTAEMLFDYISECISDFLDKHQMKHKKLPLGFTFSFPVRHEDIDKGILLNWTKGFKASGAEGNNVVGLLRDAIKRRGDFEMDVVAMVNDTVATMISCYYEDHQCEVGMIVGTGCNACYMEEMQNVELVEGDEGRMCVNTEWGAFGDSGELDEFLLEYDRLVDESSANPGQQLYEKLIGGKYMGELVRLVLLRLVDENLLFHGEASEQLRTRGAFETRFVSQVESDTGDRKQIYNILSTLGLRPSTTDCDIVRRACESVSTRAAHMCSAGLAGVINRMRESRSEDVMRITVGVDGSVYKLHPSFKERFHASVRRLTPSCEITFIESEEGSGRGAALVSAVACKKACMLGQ

SMILES: COC[C@H](C)Oc1cc(Oc2cnc(C(=O)N3CCC3)cn2)cc(C(=O)Nc2cnc(C)cn2)c1 [AZD1656, 3-{[5-(Azetidin-1-ylcarbonyl)pyrazin-2-yl]oxy}-5-{[(1S)-1-methyl-2-(methyloxy)ethyl]oxy}-N-(5-methylpyrazin-2-yl)benzamide]
- EC50 (rat hepatocytes): 470 nM
- EC50 (human glucokinase): 57 nM
- EC50 (human hepatocytes): 1390 nM
- EC50 (rat glucokinase): 72 nM
- hypoglycaemia [1]: not to cause hypoglycaemia
- plasma glucose levels [2]: reduces plasma glucose levels in a dose-dependent fashion
- HbA1c and fasting plasma glucose (FPG) levels ([3]; BID at high (40-200 mg/day), medium (20-140 mg/day) and low (10-80 mg/day) doses over 4 months): found to lower HbA1c and fasting plasma blood (FPG) glucose levels
- change in HbA1c or FPG from baseline ([3]; at 4 months): no statistically significant change
- time course of HbA1c/FPG effect ([3]; between weeks 8 and 16): transient trending towards pre-dose levels
- deaths among patients who completed the trial protocol [4]: 5
- changes in the liver, considered secondary to hypoglycaemia (healthy animals; healthy animals, chronic toxicology studies): loss of hepatocellular glycogen
- chronic toxicology findings (healthy animals; healthy animals, higher doses, up to 12 months): severe hypoglycaemia at higher doses and sequalae such as Wallerian type nerve degeneration and skeletal muscle fibre degeneration
- glucose lowering effect (healthy animals; preclinical studies of up to 12-month duration): potent glucose lowering effect
- plasma glucose levels (diabetic mice): reduces plasma glucose levels in a dose-dependent fashion
